The text below walks through data of patent US20040127739A1, “Novel n-p-propargyloxyphenethyl-thioacetic acid amides” (priority 2001, published 2004).

The inhibition is how much of the control response was suppressed.

Format in all cases: in vivo
The test system of experiment [1] is Plasmopara viticola. The experiment can be described thus: Action against Plasmopara viticola on vines (residual-protective / residual-curative). The settings on record: vine seedlings, untreated plants showed pathogen attack of 80% to 100%, read-out: inhibition of fungal infestations. Here is the method:
Action Against Plasmopara viticola on Vines a) Residual-protective Action
Vine seedlings are sprayed at the 4- to 5-leaf stage with a spray mixture (0.02% active ingredient) prepared from a wettable powder formulation of the test compound. After 24 hours, the treated plants are infected with a sporangia suspension of the fungus. Fungus infestation is evaluated after incubation for 6 days at 95-100% relative humidity and +20° C. […]
b) Residual-curative Action
Vine seedlings are infected at the 4- to 5-leaf stage with a sporangia suspension of the fungus. After incubation for 24 hours in a humidity chamber at 95-100% relative humidity and +20° C., the infected plants are dried and sprayed with a spray mixture (0.02% active ingredient) prepared from a wettable powder formulation of the test compound. After the spray coating has dried, the treated plants are placed in the humidity chamber again. Fungus infestation is evaluated 6 days after infection.

Experiment [2] deals with Phytophthora. Briefly: Action against Phytophthora on potato plants (residual-protective / systemic). The settings on record: potato plants (Bintje variety), untreated plants showed pathogen attack of 80% to 100%, read-out: inhibition of fungal infestations. Here is the method: Action Against Phytophthora on Potato Plants
(§1) a) Residual-protective Action
2-3 week old potato plants (Bintje variety) are sprayed with a spray mixture (0.02% active ingredient) prepared from a wettable powder formulation of the test compound. After 48 hours, the treated plants are infected with a sporangia suspension of the fungus. Fungus infestation is evaluated after incubation of the infected plants for 4 days at 90-100% relative humidity and +20° C.
2-3 week old potato plants (Bintje variety) are watered with a spray mixture (0.02% active ingredient based on the volume of the soil) prepared from a wettable powder formulation of the test compound. […] After 48 hours, the treated plants are infected with a sporangia suspension of the fungus. Fungus infestation is evaluated after incubation of the infected plants for 4 days at 90-100% relative humidity and +20° C.

Experiment [3] deals with Phytophthora. Briefly: Action against Phytophthora on tomato plants (residual-protective / systemic). The settings on record: untreated plants showed pathogen attack of 80% to 100%, read-out: inhibition of fungal infestations. Here is the method:
Action Against Phytophthora on Tomato Plants
as §1
After a cultivation period of 3 weeks, tomato plants are sprayed with a spray mixture (0.02% active ingredient) prepared from a wettable powder formulation of the test compound. After 48 hours, the treated plants are infected with a sporangia suspension of the fungus. Fungus infestation is evaluated after incubation of the infected plants for 5 days at 90-100% relative humidity and +20° C.
After a cultivation period of 3 weeks, tomato plants are watered with a spray mixture (0.02% active ingredient based on the volume of the soil) prepared from a wettable powder formulation of the test compound. […] After 96 hours, the treated plants are infected with a sporangia suspension of the fungus. Fungus infestation is evaluated after incubation of the infected plants for 4 days at 90-100% relative humidity and +20° C.

Regarding `C#CCOc1ccc(CCNC(=S)C(OCC#C)c2ccc(Cl)cc2)cc1OC` (stereo not shown) [Compound A1.01, 2-(4-Chloro-phenyl)-N-[2-(3-methoxy-4-prop-2-ynyloxy-phenyl)-ethyl]-2-(prop-2-ynyloxy)-thioacetamide], the inhibition at 200 ppm in experiment [1], in experiment [2] and in experiment [3] was 80 to 100% throughout.

For `C#CCOc1ccc(CCNC(=S)C(OCC#C)c2ccc(Br)cc2)cc1OC` (stereo not shown) [Compound A1.02, 2-(4-bromo-phenyl)-N-[2-(3-methoxy-4-prop-2-ynyloxy-phenyl)-ethyl]-2-(prop-2-ynyloxy)-thioacetamide], the inhibition at 200 ppm in experiment [1], in experiment [2] and in experiment [3] was 80 to 100% in each case.

Turning to `C#CCOc1ccc(CCNC(=S)C(OC(C)=O)c2ccc(Cl)cc2)cc1OC` (stereo not shown) [Compound A1.03, 2-acetoxy-2-(4-chloro-phenyl)-N-[2-(3-methoxy-4-prop-2-ynyloxy-phenyl)-ethyl]-thioacetamide], the inhibition at 200 ppm in experiment [1], in experiment [2] and in experiment [3] was 80 to 100% throughout.

Consider `C#CCOc1ccc(CCNC(=S)C(OC(C)=O)c2ccc(Br)cc2)cc1OC` (stereo not shown) [Compound A1.04, 2-acetoxy-2-(4-bromo-phenyl)-N-[2-(3-methoxy-4-prop-2-ynyloxy-phenyl)-ethyl]-thioacetamide], for which, in experiment [2], the inhibition at 200 ppm is 80 to 100%.

On to `C#CCOc1ccc(CCNC(=S)C(O)c2ccc(Cl)cc2)cc1OC` (stereo not shown) [Compound A2.01, 2-(4-Chloro-phenyl)-2-hydroxy-N-[2-(3-methoxy-4-prop-2-ynyloxy-phenyl)-ethyl]-thioacetamide], for which the inhibition at 200 ppm in experiment [1], in experiment [2] and in experiment [3] was 80 to 100% throughout.

For `C#CCOc1ccc(CCNC(=S)C(O)c2ccc(Br)cc2)cc1OC` (stereo not shown) [Compound A2.02, 2-(4-bromo-phenyl)-2-hydroxy-N-[2-(3-methoxy-4-prop-2-ynyloxy-phenyl)-ethyl]-thioacetamide], the inhibition at 200 ppm in experiment [1], in experiment [2] and in experiment [3] was 80 to 100% in each case.
